Measurements published in patent US20200038392A1, “TOPICAL COMPOSITIONS AND METHODS OF PREPARATION AND USE” (Aldeyra Therapeutics, Inc., priority 2018, published 2020).
≈ marks a conversion by molar mass, not a printed value. Where two headings read alike, the source gives them in different places.

Experiments:
[1] = type: physicochemical
Source text: It is important to note that the comparison formulation has a nominal ADX-102 concentration of 1.0% w/w, which was higher than that observed in the aqueous phase of the comparison formulation (0.31% w/w). […] However, it is possible that oil phase excipients may assist in solubilizing ADX-102, allowing it to partition between phases.

[2] = ADX-102 oxidation investigation: peroxide spiking (H2O2, NMP) and high temperature stress in PEG 400; type: physicochemical; settings: both peroxide spiking experiments (H2O2 and NMP); t=48 h at 70° C.
Protocol: A preliminary study was performed in an attempt to degrade ADX-102 to a suitable level such that oxidation products observed during long-term stability could be detected. To this end, an ADX-102 in PEG 400 stock solution (0.1% w/w) was prepared and degraded with hydrogen peroxide (H2O2) and N-methylpyrrolidone (NMP) at 0.1 and 1.0% w/w concentrations, respectively. Additionally, the stocks were stressed at 40 and 70° C. to increase degradation. […] Sufficient degradation of ADX-102 was observed following spiking with […] H2O2 and storage at 70° C. for 48 h condition and was therefore considered suitable for use in antioxidant/stabilizer selection experiments described below.

[3] = Saturated solubility of ADX-102 in DoE solvent systems; type: physicochemical; settings: solvent system SS26; range in brackets
Protocol: Following the visual assessment of placebo formulations, a DoE mixture design for ADX-102 aqueous phase solvent systems was prepared, as shown in Table 22. This was performed in order to assess the solubility of ADX-102 in solvent systems and to confirm that at least a 1.0% w/w and a 5% w/w concentration of ADX-102 in the aqueous phase of the formulation was obtainable. The following excipient levels were assessed during the solvent system DoE experiments: • Water: 0-50% • Transcutol® HP: 0-20% • SR PEG 400: 0-60% • Ethanol: 0-20% • Propylene glycol: 0-15%
SS19, along with SS20 (SS21 was not used due to the high levels of Transcutol® HP), were used as a base for further solvent system development. SS23-SS26 were prepared, broadly based on these systems, with varying levels of excipient and added antioxidant/stabilizer, and preservative. The compositions of these solvent systems are detailed in Table 25. Additionally, penetration enhancers were varied in the developed solvent system, with SS23 (based on SS19) including no Transcutol® and SS25 including diisopropyl adipate, and in the case of SS24, a humectant (glycerol). It should be noted that SS25 became turbid following the addition of diisopropyl adipate.
The solvent system SS26 was developed in order to manufacture a 5% w/w formulation. […]

[4] = Super-refined PEG 400 versus non-refined PEG 400: saturated solubility and chemical stability of ADX-102; type: physicochemical; settings: in PEG 400 (non-super refined)
Protocol: The use and requirement of non-super refined PEG 400 as an excipient was investigated in view of to the higher cost of SR PEG 400. Saturated solubility and chemical stability of ADX-102 in PEG 400 (non-super refined) was performed as described above.

[5] = Solubility of ADX-102 in potential receiver fluid systems; type: physicochemical; settings: aqueous with cosolvent or surfactant or cyclodextrin
Protocol: The solubility of the drug in a range of receiver fluid systems was determined to ensure that drug release was not limited by the solubility of ADX-102 in the receptor compartment of Franz cells. The receiver fluids selected for investigation were: ethanol and water (50:50 v/v), 2% Brij 98 in ethanol and water (50:50 v/v), 20% PEG in water, 20% PEG 400 in ethanol and water (50:50 v/v) and 2% Tween 80 in water. The findings are summarized below.

CC(C)(O)c1nc2ccc(Cl)cc2cc1N [ADX-102, 2-[3-amino-6-chloro-quinolin-2-yl]-propan-2-ol]
Saturated solubility [1]: 0.31 % w/w | solubility [1]: 0.31% | ADX-102 remaining after degradation [2]: < 70% | ADX-102 saturated solubility (% w/w) [3]: 6.85 (6.84-6.86) % w/w | Saturated solubility [4]: > 20.00 % w/w | solubility ([5]; receiver fluid 1: Ethanol and water (50:50 v/v)): 23.5 mg/mL (≈ 99.5 mM) | solubility ([5]; receiver fluid 1: ethanol and water (50:50 v/v)): 23.6 mg/mL (≈ 99.5 mM) | solubility ([5]; receiver fluid 2: 2% Brij 98 in ethanol and water (50:50 v/v)): 28.3 mg/mL (≈ 120 mM) | solubility ([5]; receiver fluid 3: 20% PEG 400 in water): 1.31 mg/mL (≈ 5.53 mM) | solubility ([5]; receiver fluid 4: 20% PEG 400 in ethanol and water (50:50 v/v)): 20.5 mg/mL (≈ 86.4 mM) | solubility ([5]; receiver fluid 5: 2% Tween 80 in water): 26.3 mg/mL (≈ 111 mM) | solubility ([5]; receiver fluid systems for Franz cells, range over the investigated receiver fluid systems): 1.31 to 28.4 mg/mL (≈ 5.53 to 120 mM)
